Experimental data as given in ChEMBL document CHEMBL1134281, “Monosaccharide-linked inhibitors of O(6)-methylguanine-DNA methyltransferase (MGMT): synthesis, molecular modeling, and structure-activity relationships” (J Med Chem, 2001).

Molecular target: T1, Methylated-DNA--protein-cysteine methyltransferase (Homo sapiens, UniProt P16455)
T1 sequence (P16455 whole entry): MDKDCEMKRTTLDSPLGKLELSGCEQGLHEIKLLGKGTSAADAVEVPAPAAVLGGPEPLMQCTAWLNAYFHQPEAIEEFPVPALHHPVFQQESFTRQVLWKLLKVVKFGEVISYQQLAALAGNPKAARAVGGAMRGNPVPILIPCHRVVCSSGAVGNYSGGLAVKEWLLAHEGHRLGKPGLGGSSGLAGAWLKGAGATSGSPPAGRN
Assay: In vitro inhibition of MGMT using cell free extracts from HeLa S3 cells

SMILES | IC50 [nM]
Nc1nc(OCc2ccccc2)c2[nH]nnc2n1 | 38
Nc1nc(OCc2cc(Br)cs2)c2[nH]cnc2n1 [LOMEGUATRIB] | 9
